The text below walks through data of PMC7156458, “Synthetic biology based construction of biological activity-related library of fungal decalin-containing diterpenoid pyrones” (Nature Communications, 2020).

Each structure is given as a SMILES string.

Common to all, as to test: cells
Set-up in all cases: species or system JFCR39 human cancer cell lines; JFCR39 panel growth inhibition, sulforhodamine B total protein after 48 h

The test system of one assay is MKN74. The conditions noted are these: for GI50: Homo sapiens, MKN-74, 48 h; for Log GI50: 48 h, inhibitor, Log GI50, 48 h. Summed up: (§1)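 Human cancer lines of the JFCR39 panel grown in RPMI-1640 with 5% FBS at 37°C, 5% CO2. Total cellular protein measured by sulforhodamine B after 48 hours of drug exposure; GI50 from duplicate assays.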
The subject of the next assay is MKN45. The conditions noted are these: for GI50: Homo sapiens, MKN-45, 48 h. Summed up: as §1
A further assay has as its system HCT-116. The conditions noted are these: for GI50: Homo sapiens, HCT-116, 48 h. Summed up: as §1
Another assay concerns St-4. The settings on record: for GI50: Homo sapiens, St-4, 48 h. Summed up: as §1
The next assay relates to MKN-B. The conditions noted are these: 48 h; for Log GI50: inhibitor, Log GI50, 48 h. Summed up: as §1
Another assay has as its system DU-145. The settings on record: for GI50: Homo sapiens, DU-145, 48 h. Summed up: as §1
The subject of the next assay is NCI-H522. The settings on record: for GI50: Homo sapiens, NCI-H522, 48 h. Summed up: as §1
A further assay relates to SNB-78. The conditions noted are these: for GI50: Homo sapiens, SNB-78, 48 h. Summed up:
as §1

The subject of the next assay is HCC2998. The settings on record: for GI50: Homo sapiens, HCC 2998, 48 h. Summed up:
as §1

For a further assay, the system named is HT-29. The conditions noted are these: for GI50: Homo sapiens, HT-29, 48 h. Summed up:
as §1

Another assay deals with SF-295. The settings on record: Homo sapiens, SF-295, 48 h. Summed up:
as §1

A further assay relates to MKN-A. The conditions noted are these: 48 h; for Log GI50: inhibitor, Log GI50, 48 h. A digest of the protocol:
as §1

In the next assay the test system is HBC-5. The settings on record: for GI50: HBC5, 48 h. Summed up:
as §1

The test system of a further assay is SF-539. The conditions noted are these: for GI50: Homo sapiens, SF-539, 48 h. Summed up: as §1
The test system of a further assay is SNB-75. The conditions noted are these: for GI50: Homo sapiens, SNB-75, 48 h. A digest of the protocol:
as §1

A further assay deals with NCI-H226. The settings on record: for GI50: Homo sapiens, NCI-H226, 48 h; for Log GI50: 48 h, inhibitor, Log GI50, 48 h. A digest of the protocol:
as §1

In the next assay the test system is NCI-H460. The conditions noted are these: for GI50: Homo sapiens, NCI-H460, 48 h; for Log GI50: 48 h, inhibitor, Log GI50, 48 h. Summed up:
as §1

A further assay has as its system OVCAR-3. The settings on record: for GI50: Homo sapiens, OVCAR-3, 48 h. Summed up: as §1
In the next assay the test system is DMS114. The conditions noted are these: for GI50: Homo sapiens, DMS-114, 48 h; for Log GI50: 48 h, inhibitor, Log GI50, 48 h. A digest of the protocol:
as §1

A further assay has as its system OVCAR-5. The settings on record: for GI50: Homo sapiens, OVCAR-5, 48 h. A digest of the protocol:
as §1

A further assay deals with U251. The conditions noted are these: for GI50: Homo sapiens, U-251, 48 h. A digest of the protocol: as §1
Where [1] appears, read: 48 h, inhibitor, Log GI50, 48 h.

As usually defined, the GI50 is the concentration at which growth is held to half of that of the control. Low readings indicate more potent growth inhibition, high ones less potent growth inhibition. As for `C=C1CC[C@@H]2[C@](C)(CC[C@H]3O[C@H](C=C(C)C)C[C@@]23C)[C@@H]1Cc1c(OC)oc(CO)c(C(=O)OC)c1=O` [Compound 21], the GI50 was 19.8 µM in the assay with MKN74; 16.2 µM with MKN45; 15 µM in the assay with HCT-116; 20 µM with St-4; 16.8 µM in the assay with MKN-B; 15.7 µM in the assay with DU-145. The GI50 in the assay on NCI-H522 was 8.73 µM; in the assay with SNB-78 it was 18.7 µM; in the assay with HCC2998 it was 18.2 µM; in the assay with HT-29 it was 17.4 µM; in the assay with SF-295, 12.1 µM; in the assay with MKN-A, 14.3 µM. Also, the GI50 in the assay with HBC-5 was 14.7 µM; with SF-539 it was 18.4 µM; with SNB-75, 17.8 µM; with NCI-H226, 18.2 µM; in the assay with NCI-H460, 12.1 µM; in the assay on OVCAR-3 it was 12 µM. For the same compound, the concentration for 50% growth inhibition (GI50) with DMS114 is 4.93 µM; in the assay on OVCAR-5, 16.6 µM; in the assay with U251, 17.5 µM.

Turning to `C=C1CC[C@H]2[C@]3(C)C[C@@H](C=C(C)C)O[C@H]3CC[C@]2(C)[C@@H]1Cc1c(OC)oc(CO)c(C)c1=O` [Compound 17], the GI50 in the assay with MKN74 is 13 µM; with MKN45 it was 14 µM; in the assay with HCT-116, 0.953 µM; in the assay with St-4 it was 15.2 µM; in the assay on MKN-B, 10 µM; in the assay on DU-145 it was 13.2 µM. Further, the GI50 was 10.5 µM with NCI-H522; 14.2 µM in the assay with SNB-78; 14 µM in the assay with HCC2998; 14.3 µM in the assay with HT-29; 10.7 µM with SF-295; 0.408 µM in the assay with MKN-A. Also, the GI50 in the assay with HBC-5 is 11.8 µM; in the assay on SF-539 it was 12.2 µM; with SNB-75, 16.9 µM; in the assay with NCI-H226 it was 14 µM; in the assay on NCI-H460, 0.0916 µM; in the assay on OVCAR-3, 10.5 µM. The GI50 was 0.0701 µM with DMS114, 15.5 µM in the assay on OVCAR-5 and 14.3 µM in the assay with U251.

As to `C=C1CCC2C(C)(CCC=C(C)C)C(O)CCC2(C)C1Cc1c(OC)oc(CO)c(C)c1=O` (centres unmarked) [Compound 16], the “Log GI50” value in the assay on MKN74 is listed as -4.995 M; in the assay with MKN45 (setting [1]), -4.853 M; in the assay with HCT-116 (setting [1]), -5.292 M; in the assay on St-4 (setting [1]) it was -4.853 M; with MKN-B, -5.237 M; in the assay with DU-145 (setting [1]), -4.962 M. Also, the “Log GI50” value is -5.659 M in the assay with NCI-H522 (setting [1]); -4.939 M in the assay with SNB-78 (setting [1]); -4.871 M in the assay with HCC2998 (setting [1]); -4.904 M with HT-29 (setting [1]); -5.445 M in the assay with MKN-A; -4.986 M in the assay with HBC-5 (setting [1]). Also, the “Log GI50” value is recorded as -4.953 M with SF-539 (setting [1]); -4.827 M with SNB-75 (setting [1]); -5.269 M in the assay on NCI-H226; -6.167 M in the assay on NCI-H460; -5.447 M with OVCAR-3 (setting [1]); -6.139 M in the assay on DMS114. The “Log GI50” value is given as -4.859 M in the assay on OVCAR-5 (setting [1]) and -4.880 M with U251 (setting [1]). The compound also had a GI50 in the assay on SF-295 of 2.8 µM.

Consider `C=C1CCC2C(C)(CCC=C(C)C)C(O)CCC2(C)C1Cc1c(OC)oc(CO)c(C)c1=O` (centres unmarked) [Compound 12], for which the “Log GI50” value with MKN74 is given as -5.381 M; in the assay on MKN-B, -5.948 M; in the assay on MKN-A, -6.771 M; in the assay with NCI-H226, -4.935 M; with NCI-H460, -7.132 M; in the assay with DMS114 it was -7.363 M. Moreover, the GI50 in the assay on MKN45 is 13.4 µM; in the assay with HCT-116, 2.63 µM; in the assay on St-4 it was 14.1 µM; in the assay on DU-145, 11.8 µM; in the assay with NCI-H522 it was 1.46 µM; in the assay on SNB-78 it was 13.3 µM. The GI50 was 15.7 µM in the assay on HCC2998; 12.6 µM in the assay on HT-29; 8.73 µM in the assay on HBC-5; 11.5 µM in the assay with SF-539; 18.4 µM in the assay with SNB-75; 4.69 µM in the assay with OVCAR-3. The GI50 was 19.5 µM with OVCAR-5 and 15 µM in the assay on U251.
